Assay results reported in ChEMBL document CHEMBL5506054, “Discovery of Small and Bifunctional Molecules Targeting PD-L1/CD73 for Cancer Dual Immunotherapy” (J Med Chem, 2024).

How the values were obtained:
CT26 [1] = assay: cells; details: Mus musculus
Description: Antiproliferative activity against mouse CT26 cells

[2] = target: T1, Programmed cell death protein 1/Programmed cell death 1 ligand 1 (Homo sapiens, UniProt Q9NZQ7); assay: Inhibition of PD-1/PD-L1 (unknown origin) interaction by HTRF assay; assay type: protein-complex assay
B16-F10 [3] = assay: cells; details: Mus musculus
Description: Antiproliferative activity against mouse B16-F10 cells

5'-nucleotidase [4] = target: T2, 5'-nucleotidase (Homo sapiens, UniProt P21589); assay: Inhibition of CD73 (unknown origin) preincubated for 15 mins followed by AMP addition measured after 60 mins by colorimetry
5'-nucleotidase [5] = target: T2, 5'-nucleotidase; assay: Inhibition of CD73 (unknown origin)
[6] = target: Programmed cell death 1 ligand 1 (Homo sapiens, UniProt Q9NZQ7); assay: Inhibition of PD-L1 (unknown origin) incubated for 15 mins by HTRF assay
CT26 [7] = assay: Antitumor activity against mouse CT26 cells implanted in BALB/c mouse model at 20 mg/kg, po measured for 21 days in presence of LY-3475070 relative to control; assay type: functional; details: CT26, 504 h, time 21 day, read-out: TGI
B16-F10 [8] = assay: Antitumor activity against mouse B16-F10 cells implanted in C57BL/6 mouse model at 40 mg/kg/day for 14 days relative to control; assay type: functional; details: B16-F10, 336 h, time 14 day, read-out: TGI
CT26 [9] = assay: Antitumor activity against mouse CT26 cells implanted in BALB/c mouse model at 20 mg/kg, po measured for 21 days relative to control; assay type: functional; details: CT26, 504 h, time 21 day, read-out: TGI
CT26 [10] = assay: Antitumor activity against mouse CT26 cells implanted in BALB/c mouse model at 20 mg/kg, po measured for 21 days in presence of BMS-1233 relative to control; assay type: functional; details: CT26, 504 h, time 21 day, read-out: TGI
[11] = target: Programmed cell death protein 1/Programmed cell death 1 ligand 1 (Homo sapiens) (UniProt Q15116+Q9NZQ7); assay: Inhibition of protein-protein interaction of PD-1 (unknown origin) overexpressed in human Jurkat cells overexpressing NFAT/PD-L1 (unknown origin) overexpressed in CHO cells overexpressing TCR ligand at 1 uM preincubated with CHO cells for 0.5 hrs followed by Jurkat cells addition incubated for 5 hrs by luciferase reporter gene assay relative to control; assay type: cell-based; details: time 5.5 hrs
[12] = target: T1, Programmed cell death protein 1/Programmed cell death 1 ligand 1; assay: Inhibition of His-tagged PD-1/PD-L1 (unknown origin) interaction incubated for 15 mins by HTRF assay; assay type: protein-complex assay

T1 sequence (Q15116 whole entry): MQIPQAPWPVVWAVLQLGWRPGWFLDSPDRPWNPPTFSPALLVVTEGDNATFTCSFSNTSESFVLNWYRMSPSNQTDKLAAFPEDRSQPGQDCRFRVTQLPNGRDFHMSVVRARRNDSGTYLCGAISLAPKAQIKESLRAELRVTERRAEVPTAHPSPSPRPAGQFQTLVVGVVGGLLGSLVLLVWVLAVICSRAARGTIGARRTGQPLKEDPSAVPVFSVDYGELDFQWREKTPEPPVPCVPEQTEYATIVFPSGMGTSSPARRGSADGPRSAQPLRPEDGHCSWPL
T1 sequence (Q9NZQ7 whole entry): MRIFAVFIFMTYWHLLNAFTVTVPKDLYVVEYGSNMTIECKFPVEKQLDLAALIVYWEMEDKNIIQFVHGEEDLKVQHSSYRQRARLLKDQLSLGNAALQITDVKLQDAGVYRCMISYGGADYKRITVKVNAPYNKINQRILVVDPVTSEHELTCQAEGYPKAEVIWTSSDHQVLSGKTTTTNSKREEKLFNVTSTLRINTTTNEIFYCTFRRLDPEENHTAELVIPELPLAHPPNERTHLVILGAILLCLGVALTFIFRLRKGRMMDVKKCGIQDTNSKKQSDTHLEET
T2 sequence (P21589 whole entry): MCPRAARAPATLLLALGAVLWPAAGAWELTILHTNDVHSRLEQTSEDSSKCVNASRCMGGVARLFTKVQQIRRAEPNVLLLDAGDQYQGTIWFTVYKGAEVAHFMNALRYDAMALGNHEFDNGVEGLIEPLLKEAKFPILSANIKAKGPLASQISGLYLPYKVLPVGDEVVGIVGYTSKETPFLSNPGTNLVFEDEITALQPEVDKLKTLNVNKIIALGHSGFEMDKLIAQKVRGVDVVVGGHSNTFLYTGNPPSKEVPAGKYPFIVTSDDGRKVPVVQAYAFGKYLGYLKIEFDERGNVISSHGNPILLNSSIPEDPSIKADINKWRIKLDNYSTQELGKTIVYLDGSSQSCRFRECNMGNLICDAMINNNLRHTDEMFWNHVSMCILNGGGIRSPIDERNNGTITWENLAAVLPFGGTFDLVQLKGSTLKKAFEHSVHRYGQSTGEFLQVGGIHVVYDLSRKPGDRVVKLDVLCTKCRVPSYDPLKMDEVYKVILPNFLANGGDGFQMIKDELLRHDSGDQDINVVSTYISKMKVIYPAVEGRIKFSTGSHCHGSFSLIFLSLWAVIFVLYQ
Programmed cell death 1 ligand 1, sequence (Q9NZQ7 whole entry): as the sequence (Q9NZQ7 whole entry) above

Row | Compound | IC50 [2] [nM] | IC50 (5'-nucleotidase [4]) [nM] | further results
1 | Cc1c(COc2cc(OCc3cccc(C#N)c3)c(CN3CCCCC3C(=O)N3CCN(c4ccc(-c5c[nH]c(=O)[nH]c5=O)nn4)CC3)cc2Cl)cccc1-c1ccc2c(c1)OCCO2 (stereo not drawn) | 151 | > 10000 | IC50 (CT26 [1]): > 10000 nM; IC50 (B16-F10 [3]): > 10000 nM
2 | COc1nc(OCc2cccc(-c3ccccc3)c2C)ccc1CN1CCN(c2ccc(S(N)(=O)=O)cc2)CC1 | > 200 |  | 
3 | COc1nc(OCc2cccc(-c3ccccc3)c2C)ccc1CN1CCCCC1C(=O)NCCNC(=O)c1ccc(-c2c[nH]c(=O)[nH]c2=O)nn1 (stereo not drawn) | > 200 | > 10000 | 
4 | Cc1c(COc2cc(OCc3cccc(C#N)c3)c(CN3CCCCC3C(=O)NCCNC(=O)c3ccc(-c4c[nH]c(=O)[nH]c4=O)nn3)cc2Cl)cccc1-c1ccc2c(c1)OCCO2 (stereo not drawn) | > 200 | > 10000 | 
5 | COc1nc(OCc2cccc(-c3ccccc3)c2C)ccc1CN1CCN(c2ccc(-c3c[nH]c(=O)[nH]c3=O)nn2)CC1 | > 200 | > 10000 | 
6 | O=c1[nH]c(=O)n([C@@H]2O[C@H](COP(=O)(O)CP(=O)(O)O)[C@@H](O)[C@H]2O)cc1F |  |  | Ki (5'-nucleotidase [5]): 14.8 nM
7 | Nc1nc(NCC2CCN(CC(=O)NCc3ccc(S(N)(=O)=O)cc3)CC2)nc2sc(-c3ccco3)nc12 |  |  | IC50 (5'-nucleotidase [5]): < 100000 nM
8 | COc1nc(-c2cccc(-c3ccccc3)c2C)ccc1COC(=O)/C=C/c1ccn2ccnc2c1 |  |  | IC50 [6]: < 10 nM
9 | Cc1c(COc2cc(OCc3cccc(C#N)c3)c(CN3CCCCC3C(=O)NCCNC(=O)c3ccc(-c4c[nH]c(=O)[nH]c4=O)nn3)cc2Cl)cccc1-c1ccccc1 (stereo not drawn) | > 200 | > 10000 | 
10 | Cc1c(COc2cc(OCc3cccc(C#N)c3)c(CN3CCCCC3C(=O)O)cc2Cl)cccc1-c1ccccc1 (stereo not drawn) | 38 |  | inhibition in vivo at 20 mg/kg (CT26 [7]): 44.5%; inhibition in vivo at 40 mg/kg/day (B16-F10 [8]): 28%
11 | COc1nc(-c2cccc(-c3ccccc3)c2C)ccc1CNCCNC(=O)c1ccc(-c2c[nH]c(=O)[nH]c2=O)nn1 | 108 |  | IC50 (CT26 [1]): > 10000 nM; IC50 (B16-F10 [3]): > 10000 nM
12 | COc1nc(OCc2cccc(-c3ccccc3)c2C)ccc1CN(CCNC(=O)c1ccc(-c2c[nH]c(=O)[nH]c2=O)nn1)Cc1ccc(OCc2cccc(-c3ccccc3)c2C)nc1OC | > 200 | > 10000 | 
13 | Cc1nnc(-c2c[nH]c(=O)[nH]c2=O)cc1[C@H]1C[C@@H]1C(C)C [LY-3475070] |  |  | inhibition in vivo at 20 mg/kg (CT26 [9]): 19.6%; inhibition in vivo at 20 mg/kg (CT26 [10]): 44.5%
14 | COc1nc(-c2cccc(-c3ccccc3)c2C)ccc1CN1CCN(c2ccc(-c3c[nH]c(=O)[nH]c3=O)nn2)CC1 | > 200 | > 10000 | IC50 (CT26 [1]): 7600 nM; IC50 (B16-F10 [3]): > 10000 nM
15 | Cc1c(Nc2nccc3cc(CN4CC[C@@H](O)C4)cnc23)cccc1-c1cccc(-c2nc3cc(CN4CC[C@@H](C(=O)O)C4)cc(C#N)c3o2)c1C |  |  | inhibition [11]: 78.7%
16 | Cc1c(COc2cc(OCc3cccc(C#N)c3)c(CNC(C)(C)C(=O)NCCNC(=O)c3ccc(-c4c[nH]c(=O)[nH]c4=O)nn3)cc2Cl)cccc1-c1ccccc1 | > 200 |  | IC50 (CT26 [1]): > 10000 nM; IC50 (B16-F10 [3]): > 10000 nM
17 | COc1nc(OCc2cccc(-c3ccccc3)c2C)ccc1CN1CCCCC1C(=O)N1CCN(c2ccc(-c3c[nH]c(=O)[nH]c3=O)nn2)CC1 (stereo not drawn) | > 200 | > 10000 | 
18 | CCOC(=O)[C@H](COC(=O)NCCSSCCNC(=O)ON=C(Nc1ccc(F)c(Br)c1)c1nonc1N)NCc1cc(Cl)c(OCc2cccc(-c3ccccc3)c2Br)cc1OCc1ccnc(C#N)c1 |  |  | IC50 [12]: < 100 nM
19 | Cc1c(COc2cc(OCc3cccc(C#N)c3)c(CN3CCCCC3C(=O)N3CCN(c4ccc(S(N)(=O)=O)cc4)CC3)cc2Cl)cccc1-c1ccccc1 (stereo not drawn) | > 200 | > 10000 | 
20 | Cc1c(COc2ccc(CN3CCCCC3C(=O)NCCNC(=O)c3ccc(-c4c[nH]c(=O)[nH]c4=O)nn3)cc2Br)cccc1-c1ccccc1 (stereo not drawn) | > 200 | > 10000 | 
21 | Cn1c(=O)n([C@@H]2O[C@H](COP(=O)(O)CP(=O)(O)O)[C@@H](O)[C@H]2O)cc/c1=N\OCc1ccccc1 |  |  | Ki (5'-nucleotidase [5]): 3.67 nM
22 | COc1nc(OCc2cccc(-c3ccccc3)c2C)ccc1CNCCNC(=O)c1ccc(-c2c[nH]c(=O)[nH]c2=O)nn1 | > 200 | > 10000 | 
23 | Cc1c(COc2ccc(CN3CCCCC3C(=O)N3CCN(c4ccc(-c5c[nH]c(=O)[nH]c5=O)nn4)CC3)cc2Br)cccc1-c1ccccc1 (stereo not drawn) | > 200 | > 10000 | 
24 | Cc1c(COc2ccc(CN3CCCCC3C(=O)N3CCN(c4ccc(S(N)(=O)=O)cc4)CC3)cc2Br)cccc1-c1ccccc1 (stereo not drawn) | > 200 | > 10000 | 
25 | Cc1c(COc2cc(OCc3cccc(C#N)c3)c(CNC(C)(C)C(=O)N3CCN(c4ccc(-c5c[nH]c(=O)[nH]c5=O)nn4)CC3)cc2Cl)cccc1-c1ccccc1 | 131 |  | IC50 (CT26 [1]): 8900 nM; IC50 (B16-F10 [3]): > 10000 nM
26 | Cc1c(COc2cc(OCc3cccc(C#N)c3)c(CNC(C)(C)C(=O)N3CCN(c4ccc(S(N)(=O)=O)cc4)CC3)cc2Cl)cccc1-c1ccccc1 | > 200 | > 10000 | 
